Measurements taken from patent publication US20240239787A1, “COMPOUNDS FOR USE IN THE TREATMENT OF CANCER” (Nanyang Technological University, priority 2021, published 2024).

Tests used:
BRD4 [1] = biological target: T1, BRD4 (Homo sapiens, UniProt O60885); experiment: BRD4 degradation by Western blot in HEK293T cells; format: cell-based; design: endogenous in cells; host or cells: HEK293T; details: 12 h
Source text: The effective production of BRD4 heterobifunctional degraders in solution allowed us to investigate the function of ENCTAC components in biological applications. […] Particularly, NTR responsive JW4, the pomalidomide-containing compound that can target CRBN and is a universal E3 ligase, is expected to be uncaged through NTR-assisted nitro and GSH reduction once it enters the hypoxic cells. The exposed cysteine groups are then readily linked with the CBT moieties on the JQ1-CBT fragments via a specific bioorthogonal click reaction. Besides, the JQ1 warheads are presumed to be simultaneously bound to the BRD4 proteins, thus forming bifunctional degraders in-situ for localized proteolysis (FIG. 17a). […] As proof-of-concept, the control molecule J266 that can only respond to GSH but not NTR, was first introduced into the HEK293T cell line (for 6 h), with subsequent addition of the JQ1-CBT (for 12 h). After intracellular formation of the click-J252, the proteolysis process was observed by western blot analysis.
HeLa, Hek293T, MDA-MB-231, 4T1 or B16F10 cells (1.5×10^6 cells/mL) were treated with J266 (10 μM) for 6 h before incubating with JQ1-CBT at the indicated concentrations and time. This entire incubation was performed in normoxia condition. […] The supernatant was collected and the protein concentration was analyzed by NanoDrop™ 2000/2000c Spectrophotometers. […]

[2] = tested on: broad range of enzymes and chemical agents; experiment: Selectivity of JW4 with or without NADH (LC-MS); format: biochemical; details: JW4 10 μM, reagents 0-40 μg/mL, 120 min
Experimental: A MS vial was sequentially added JW4 (10 μM), a reagent selected from sodium chloride, calcium chloride, ascorbic acid, glucose, cysteine, furin, CtsB, monoamine oxidase A (MAO-A) and monoamine oxidase B (MAO-B) (concentration range of 0-40 μg/mL), with or without the addition of NADH (0.5 mM) and the mixture was dissolved in PBS (pH 7.4, 10 mM) to a final volume of 500 μL. The mixture in the vial was vortexed and incubated at 37° C. for 120 min before it was subject to structural mass analysis.

HIF-1α = HIF-1α level in hypoxic Hela cells (immunofluorescence imaging, Western blot); format: cell-based, human
Experimental: (§1) HeLa, Hek293T, MDA-MB-231, 4T1 or B16F10 cells (1.5×10^6 cells/mL) were treated with J266 (10 μM) for 6 h before incubating with JQ1-CBT at the indicated concentrations and time. This entire incubation was performed in normoxia condition. For NTR-moiety caged JW4, the cells were treated with JW4 (10 μM) 6 h prior to the addition of JQ1-CBT for a subsequent 12 h, and was performed entirely under hypoxic condition. Comparison of the downstream effect between the controls and drug-treated cells were completely executed in hypoxic condition. To work up, the cells were washed with cold PBS (pH 7.4) twice, and lysed with RIPA buffer supplemented with protease inhibitor cocktail and phosphatase inhibitor cocktail for 10 min at 4° C. Then, the lysed cells were collected and centrifuged at 13,500 rpm for 20 min at 4° C. The supernatant was collected and the protein concentration was analyzed by NanoDrop™ 2000/2000c Spectrophotometers. The lysate volumes were fine-tuned and loaded onto a Mini-PROTEAN® TGX™ 4-20% Precast Gel and was separated by SDS-PAGE. Then, the gel was transferred onto a PVDF membrane (100 V, 90 min, 4° C.), washed with TBS-T twice, and blocked with 1% BSA for 1 h at r.t. Next, the membrane was incubated with primary antibody overnight at 4° C., washed thrice with TBS-T, followed by incubation with goat anti-rabbit IgG (H+L) Secondary Antibody, HRP for 1 h. The membrane was supplemented with Radiance Q chemiluminescent ECL substrate and visualized using Amersham™ ImageQuant™ 800 biomolecular imager. B-Tubulin was used as the internal control.
Hela cells were plated at a density of 8×10^4 cells/mL in each well of the eight-well ibidi dishes before experiment. To sustain the hypoxia-induced factor throughout the drug treatment process, drug incubation was performed entirely in hypoxic chamber. […] The fluorescence of the alleviated HIF-1α expression upon drug treatment was visualized with Carl Zeiss LSM 800 microscopes (Hoechst 33258: Ex=405 nm, Em=460/50 nm; Alexa Fluor 488: Ex=488 nm, Em=515/30 nm; Alexa Fluor 594: Ex=561 nm, Em=617/20 nm).

NTR = NTR enzymatic cleavage in vitro (LC-MS); format: biochemical
Source text: Upon the exertion of external enzymatic stimuli, the NTR-responsive moiety undergoes self-immolation to unleash the amino group. Simultaneously, the presence of a reduction agent cleaves the -StBu group to liberate thiol group (—SH), creating the cleaved-J266. The presence of a readily reactive amino group and thiol group on cleaved-J266, with the co-insertion of JQ1-CBT would spontaneously induce the CBT-cysteine orthogonal click conjugation, shaping the luciferin-based structure in click-J252 for targeted protein disruption (FIG. 12a). To validate the kinetics of ENCTAC formation, JW4 was tested against the presence of ntr enzyme accompanied by the co-factor, NADH, at 37° C. across a range of time settings in LC-MS system. The formation of J252 in the presence of J266 and JQ1-CBT was also evaluated by LC-MS.
A MS vial was sequentially added JW4 (10 μM), nicotinamide adenine dinucleotide (NADH, 0.5 mM) and NTR (40 μg/mL), and the mixture was dissolved in PBS (pH 7.4, 10 mM) to a total volume of 500 μL. The mixture in the vial was vortexed and incubated at 37° C. with varying time control from 0-240 min. Structural mass analysis was performed to observe any molecular mass alteration.
A MS vial was sequentially added JW4 (10 μM) or J268 ([…]), NADH (0.5 mM) and NTR (concentration range of 0-40 μg/mL), and the mixture was dissolved in PBS (pH 7.4, 10 mM) to a final volume of 500 μL. The mixture in the vial was vortexed and incubated at 37° C. for 120 min before subjecting to structural mass analysis.

zebrafish embryos = experiment: Yolk extension phenotype of zebrafish embryos; format: in vivo; details: 50 μM, hypoxia-normoxia alternating 8 h
Experimental: Wide type zebrafish embryos at 12 hpf was incubated with J252 (50 μM), JW4 (50 μM), or the mixture of JW4 (50 μM) and JQ1-CBT (50 μM) in hypoxia-normoxia alternative condition for 8 h at 28° C. After that, the embryos were further incubated in normoxia condition at 28° C. for 16 h before the yolk extension phenotypes were visualized under Zeiss LSM800 confocal microscope using bright-field channel. Embryos with JW4+JQ1-CBT treatment under normoxia were used as the controls.

BRD4 [3] = biological target: T1, BRD4; experiment: Hook effect: BRD4 degradation at extended degrader concentrations under hypoxia; format: cell-based; design: endogenous in cells
Experimental: as §1, with “The membrane was supplemented with Radiance Q chemiluminescent ECL substrate and visualized using Amersham™ ImageQuant™ 800 biomolecular imager. B-Tubulin was used as the internal control.” left out

zebrafish larvae = experiment: Vascularization of vhl mutant and wide type zebrafish larvae (confocal imaging); format: in vivo; details: vhl^hu2117 crosses, 10 μM; non-treatment approximately one quarter
Experimental: Vasculature zebrafishes were obtained from natural crosses of the AB wild-type strain or vhl^+/hu2117 carriers on the fli1a:egfp^y1 transgenic background (which fluorescently marks the vasculature). JW4 and JQ1-CBT were dissolved in DMSO and the mixture was applied to embryos at equimolar concentration of 10 μM, with J252 (10 μM) and JQ1 (10 μM) used for the control experiments. […] The vascular plexus was imaged on a Zeiss LSM800 confocal microscope. Green: blood vessel tracker, .ex: 488 nm, .em: 520/30 nm; red: . ex: 564 nm, .em: 610/30 nm.

CK2α [4] = biological target: T2, CK2α (Homo sapiens, UniProt P68400); experiment: Immunofluorescence staining of CK2α degradation over time; format: cell-based; design: Hek293T, MCF-7, and U205 cells were chosen as they can express different levels of CK2α protein; endogenous in cells; host or cells: HEK293T, MCF-7, U2OS; details: 0.1 or 1 μM, prolonged time (up to 20 h); Hek293T, MCF-7, U205 cells
Experimental: After the synthesis of T44 and T120 in Examples 1 and 2, their properties for protein degradation were examined. Hek293T, MCF-7, and U205 cells were chosen as they can express different levels of CK2α protein.
[…] Upon washing with PBS buffer thrice, the protein degradation was examined by immunofluorescence staining.
Each group of cells with density of 5×10^4 cells in each well of 8-well ibidi-dishes was treated with T120 or T44 at different concentration (0.1 μM or 1 μM) and time (0 h, 6 h, 18 h or 30 h). After treatment, the cells were fixed with 4% paraformaldehyde for 15 min, permeabilized with 0.25% Triton™ X-100 for 10 min and blocked with 5% BSA for 1 h at room temperature. The cells were then labelled with CK2α Rabbit polyclonal Antibody (Cell signalling, #2656) in 1% BSA and incubated for 3 h at r.t. Subsequently, Alexa Fluor 488-Goat Anti-Rabbit IgG secondary antibody was stained for 30 min at r.t. The nucleus was stained with Hoechst 33342 for 30 min at r.t. The degradation of CK2α protein was visualized with Carl Zeiss LSM 800 microscopes. (Hoechst 33342: Ex=405 nm, Em=460/50 nm; Alexa Fluor 488: Ex=488 nm, Em=515/30 nm).

CK2α [5] = biological target: T2, CK2α; experiment: Concentration-dependent test for CK2α degradation (immunofluorescence / Western blot); format: cell-based; details: 24 h
Experimental: Based on the established method (From Merck), the lysates were loaded into the wells in a Mini-PROTEAN® TGX™ 4-20% Precast Gel and run for separation in 30 min under 200 V.
Cell lines including HEK293T and MCF-7 was incubated with varied concentrations of T44 or T120 for 24 h. After that, the protein level was evaluated by the above immunofluorescence staining protocol. Alternatively, the protein level was evaluated by Western blot analysis. Particularly, The lysates of each group of cells were collected and centrifuged at 12,000×g for 20 min at 4° C. Protein levels in supernatants were determined using Nanodrop and equalized to the same concentration and boiled for 10 min with SDS-PAGE sample loading buffer before being separated using SDS-PAGE and transferred to the PVDF membrane. The membrane was then blocked with 5% BSA-TBST blocking buffer overnight at 4° C. Subsequently, CK2α Rabbit polyclonal Antibody (Cell signalling, #2656) was incubated overnight at 4° C. in 1% BSA-TBST buffer. After series of washing, the goat-anti rabbit IGG (H&L) secondary antibody was added and incubated for 1 h in 1% BSA-TBST. All signals were visualized using […] (Image quant 800) system.

T2 sequence (P68400 whole entry): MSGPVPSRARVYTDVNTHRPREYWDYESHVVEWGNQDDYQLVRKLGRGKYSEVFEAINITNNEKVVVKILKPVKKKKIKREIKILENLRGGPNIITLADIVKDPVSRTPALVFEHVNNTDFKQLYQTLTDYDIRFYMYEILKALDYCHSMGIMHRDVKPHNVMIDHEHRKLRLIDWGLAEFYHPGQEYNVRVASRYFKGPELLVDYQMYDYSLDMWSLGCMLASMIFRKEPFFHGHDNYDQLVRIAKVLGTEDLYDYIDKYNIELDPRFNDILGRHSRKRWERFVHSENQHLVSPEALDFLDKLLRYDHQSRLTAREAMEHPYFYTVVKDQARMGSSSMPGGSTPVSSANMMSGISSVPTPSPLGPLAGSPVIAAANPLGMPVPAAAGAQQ

`CC(C)(C)SSC[C@@H](NC(=O)OCc1ccc([N+](=O)[O-])cc1)C(=O)NCCOCCOCC(=O)Nc1cccc2c1C(=O)N(C1CCC(=O)NC1=O)C2=O` (some centres unmarked) [JW4, Pomalidomide-PEG-NTR] was tested, and the “BRD4 degradation by independent treatment (alone)” value (BRD4 [1]) was “did not induce any degradation”, the “cleavage by different components and enzymes” value [2] was “no obvious cleavage except for NTR+NADH” and the HIF-1α protein level (HIF-1α) was “did not induce HIF-1α elimination”. For the same compound, the “NTR enzymatic uncaging (self-immolation) followed by LC-MS” value (NTR; 10 μM substrate, NTR 40 μg/mL, NADH, 37° C., span of 4 h) was “near to completion”, the “Kcat of NTR uncaging” value (NTR; NTR, NADH 0.5 mM, PBS pH 7.4, 37° C.) was 0.000262 s⁻¹ and the Km (NTR; NTR, NADH 0.5 mM, PBS pH 7.4, 37° C., read-out: Km of NTR uncaging) was 101 µM.

For `Cc1sc2c(c1C)C(c1ccc(Cl)cc1)=N[C@@H](CC(=O)Oc1ccc3nc(C4N=C(C(=O)NCCOCCOCC(=O)Nc5cccc6c5C(=O)N(C5CCC(=O)NC5=O)C6=O)CS4)sc3c1)c1nnc(C)n1-2` (some centres unmarked) [J252], the “yolk extension phenotype at 36 hpf” value (zebrafish embryos) was “similarly less extension of yolk”, the HIF-1α protein level (HIF-1α) was “able to downregulate” and the BRD4 degradation level (BRD4 [3]; 50 μM) was “around 20%”. The “concentration at which decrease in efficiency of proteolysis started (hook effect)” value (BRD4 [3]; hypoxia) was 5 µM and the vascularized larvae (zebrafish larvae) was 22.5%.

`COc1cc(/C=N/n2c(SC)nnc2-c2ccc(OCCOCCOCCOCc3cn(CCOCC(=O)Nc4cccc5c4C(=O)N(C4CCC(=O)NC4=O)C5=O)nn3)cc2)c(Br)cc1O` (centres unmarked) [T44] was tested, and the “CK2α antibody fluorescence signal in cells after incubation” value (CK2α [4]) was “decreased fluorescence signals”, the “CK2α degradation effect, concentration dependence” value (CK2α [5]; HEK293T and MCF-7 cells) was “cell-dependent” and the “CK2α fluorescence change with different concentrations” value (CK2α [5]; MCF-7 cells) was “no obvious fluorescence change”.
